From patent US11667602B2, “Compounds and their use” (AstraZeneca AB, priority 2020, dated 2023)
Converted amounts (≈) assume the structure as drawn.

Legend:
[1] = Human Hepatocyte Stability (Test D); type: in vitro ADME; settings: geometric mean if run multiple times; for hepatocyte CLint at 1 µM: human, cryopreserved pooled human hepatocytes (LiverPool 10-Donor)
Protocol: Human Hepatocyte Stability (Test D)
The metabolic stability of compounds in human hepatocytes was assessed using the following protocol:
1. Prepare 10 mM stock solutions of compound and control compounds in appropriate solvent (DMSO). Place incubation medium (L-15 Medium) in a 37° C. water bath, and allow warming for at least 15 minutes prior to use.
2. Add 80 μL of acetonitrile to each well of the 96-well deep well plate (“Quenching plate”).
3. In a new 96-well plate, dilute the 10 mM test compounds and the control compounds to 100 μM by combining 198 μL of acetonitrile and 2 μL of 10 mM stock solution.
4. Remove a vial of cryopreserved (less than −150° C.) human hepatocytes (LiverPool™ 10-Donor Human hepatocytes obtained from Bioreclamation IVT (Product No. S01205)) from storage, ensuring that vials remain at cryogenic temperatures until thawing process ensues. As quickly as possible, thaw the cells by placing the vial in a 37° C. water bath and gently shaking the vials. Vials should remain in water bath until all ice crystals have dissolved and are no longer visible. After thawing is complete, spray vial with 70% ethanol, transfer the vial to a bio-safety cabinet.
5. Open the vial and pour the contents into the 50 mL conical tube containing thawing medium. Place the 50 mL conical tube into a centrifuge and spin at 100 g for 10 minutes (room temperature).
6. Using Cellometer® Vision, count cells and determine the viable cell density. Cells with poor viability (<80% viability) are not acceptable for use.
7. Transfer 247.5 μL of hepatocytes into each well of a 96-well cell incubation plate. Place the plate on Eppendorf Thermomixer Comfort plate shaker to allow the hepatocytes to warm for 10 minutes.
8. Add 2.5 μL of 100 μM test compound or control compounds into an incubation well containing cells to initiate the reaction.
9. Incubate the plate at 37° C. and 900 rpm on an Eppendorf Thermomixer Comfort plate shaker.
10. Centrifuge the quenching plates for 20 minutes at 4,000 rpm. Transfer 30 μL of supernatant of each compound into a 96-well analysis plate. 4 compounds are pooled together into one cassette. Then dilute the pooled sample by adding of 180 μl of pure water. All incubations are performed in singlicate.
All calculations were carried out using Microsoft Excel. Peak areas were determined from extracted ion chromatograms. In vitro intrinsic clearance (in vitro Clint, in μL/min/10^6 cells) of parent compound was determined by regression analysis of the Ln percent parent disappearance vs. time curve. The in vitro intrinsic clearance (in vitro Clint, in μL/min/10^6 cells) reported in Table 36, and was determined from the slope value using the following equation: in vitro Clint=kV/N
V=incubation volume (0.25 mL);
N=number of hepatocytes per well (0.25×10^6 cells)
Where the assay was run multiple times for the same compound, the geometric mean is reported.

[2] = Rat Hepatocyte Stability (Test E); type: in vitro ADME; settings: geometric mean if run multiple times; for hepatocyte CLint: rat, hepatocytes
How it was run: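 Intrinsic clearance in rat hepatocytes, expressed as μl/min/10^6 cells, following the literature integrated DMPK panel method. Repeat determinations combined as geometric mean.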

[3] = Human Plasma Protein Binding (Test B); type: in vitro ADME; settings: fraction unbound (fu)
How it was run: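 Values given as % free (fu) in human plasma, using the method of Wernevik et al. (2020). For compounds tested more than once, the arithmetic mean is given.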

Solubility (Test F) = type: physicochemical; settings: arithmetic mean if run multiple times
Protocol: The assay was conducted according to the Solubility Assay described in pages 164-167 of Wernevik, J. et al., “A Fully Integrated Assay Panel for Early Drug Metabolism and Pharmacokinetics Profiling”, Assay and Drug Development Technologies, 2020, 18(4), 157-179. Data are reported in Table 36 as solubility ([…]. Where the assay was run multiple times for the same compound, the arithmetic mean is reported.

human RXFP1 = target: T1, human RXFP1 (Homo sapiens, UniProt Q9HBX9); assay: RXFP1 Hu cAMP (Test A); type: cell-based; set-up: expressed in transfected cells; host or cells: Jump-In T-REx CHO-K1 cells (ThermoFisher), induced with 10 ng/ml doxycycline for 24 h; settings: RXFP1 Hu cAMP; for EC50: read-out: Test A EC50
T1 sequence (Q9HBX9 1-757): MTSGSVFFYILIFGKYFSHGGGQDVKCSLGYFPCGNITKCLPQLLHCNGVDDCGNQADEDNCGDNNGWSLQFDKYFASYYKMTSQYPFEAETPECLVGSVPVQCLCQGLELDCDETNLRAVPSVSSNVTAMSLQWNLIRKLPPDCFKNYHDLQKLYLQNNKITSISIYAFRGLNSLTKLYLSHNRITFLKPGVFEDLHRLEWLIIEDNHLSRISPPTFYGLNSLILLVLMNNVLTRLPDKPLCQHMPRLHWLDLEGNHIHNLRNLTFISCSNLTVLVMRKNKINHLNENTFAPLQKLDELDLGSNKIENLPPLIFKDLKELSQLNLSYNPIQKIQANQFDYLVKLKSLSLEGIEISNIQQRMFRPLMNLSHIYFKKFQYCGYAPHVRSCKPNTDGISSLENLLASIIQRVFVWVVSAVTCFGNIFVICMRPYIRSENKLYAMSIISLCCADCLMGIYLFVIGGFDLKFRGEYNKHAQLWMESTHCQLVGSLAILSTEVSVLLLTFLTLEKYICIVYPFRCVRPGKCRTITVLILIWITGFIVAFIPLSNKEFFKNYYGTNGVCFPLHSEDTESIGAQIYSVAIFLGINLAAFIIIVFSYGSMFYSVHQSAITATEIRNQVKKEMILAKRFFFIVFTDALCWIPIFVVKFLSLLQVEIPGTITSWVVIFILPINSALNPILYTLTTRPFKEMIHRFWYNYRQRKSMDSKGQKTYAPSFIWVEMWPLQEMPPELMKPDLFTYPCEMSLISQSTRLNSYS
How it was run: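 Cells: CHO-K1 stably carrying human RXFP1, expressed after 24 h 10 ng/ml doxycycline; 0.5 mM IBMX final, HTRF detection after 2 h at room temperature.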

[4] = Human Liver Microsomal Stability (Test C); type: in vitro ADME; settings: for microsomal CLint: human, liver microsomes
How it was run: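 CLint (μl/min/mg protein) derived from compound depletion in human liver microsomes following a published standardized early-DMPK protocol; replicate determinations given as arithmetic mean.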

hepatocyte CLint at 1 µM [1] | hepatocyte CLint [2] | Test B Human Plasma Protein Binding (% free) [3] | solubility (Solubility (Test F)) | Test A Sinf (human RXFP1) | EC50 (human RXFP1) | microsomal CLint [4] | Test D Human Hepatocyte Stability Clint ([1]; human hepatocytes) | Test E Rat Hepatocyte Stability Clint ([2]; rat hepatocytes) | Test C Human Liver Microsomal Stability Clint ([4]; human liver microsomes) | Structure (SMILES)
13 µL/min/1e6 cells | 38 µL/min/1e6 cells | 0.26 % free | 340 µM (≈ 223 µg/mL) | 105% | 3 nM |  |  |  |  | COc1cc(F)c(O[C@H]2CC[C@@](C)(C(=O)O)CC2)cc1C(=O)N[C@@H]1CCC[C@@H]1C(=O)Nc1ccc(F)c(S(F)(F)(F)(F)F)c1 [Example 352]
5 µL/min/1e6 cells |  | <0.30 % free | 880 µM (≈ 580 µg/mL) | 109% | 120 nM | 18 µL/min/mg |  |  |  | COc1cc(F)c(-c2ccc(-c3nn[nH]n3)cc2)cc1C(=O)N[C@@H]1[C@H]2CC[C@H](C2)[C@@H]1C(=O)Nc1cccc(S(=O)(=O)C(F)(F)F)c1 [Example 325, (1R,2S,3R,4S)-3-(6-Fluoro-4-methoxy-4′-(1H-tetrazol-5-yl)-[1,1′-biphenyl]-3-carboxamido)-N-(3-((trifluoromethyl)sulfonyl)phenyl)bicyclo[2.2.1]heptane-2-carboxamide]
11 µL/min/1e6 cells |  | <0.10 % free |  | 117% | 190 nM | < 3 µL/min/mg |  |  |  | COc1cc(F)c(-c2ccc(C(=O)O)cc2)cc1C(=O)Nc1ccccc1C(=O)Nc1cccc(S(=O)(=O)C(F)(F)F)c1 [Example 328, 2′-Fluoro-4′-methoxy-5′-((2-((3-((trifluoromethyl)sulfonyl)phenyl)carbamoyl)phenyl)carbamoyl)-[1,1′-biphenyl]-4-carboxylic acid]
15 µL/min/1e6 cells | 46 µL/min/1e6 cells |  | 590 µM (≈ 380 µg/mL) | 109% | 18 nM | 64 µL/min/mg |  |  |  | COc1cc(F)c(O[C@H]2CC[C@@](C)(C(=O)O)CC2)cc1C(=O)N[C@@H]1CCC[C@@H]1C(=O)Nc1cccc(S(=O)(=O)C(F)(F)F)c1 [Example 351]
4.2 µL/min/1e6 cells | 25 µL/min/1e6 cells |  | 880 µM (≈ 606 µg/mL) | 104% |  | 12 µL/min/mg |  |  |  | COc1cc(F)c(O[C@H]2CC[C@@](C)(C(=O)O)CC2)cc1C(=O)NC1C(C(=O)Nc2cccc(S(=O)(=O)C(F)(F)F)c2)CC2OCOC21 (single isomer, unassigned) [Example 512, (1R,4s)-4-(2-Fluoro-4-methoxy-5-(((3aR*,4S*,5S*,6aS*)-5-((3-((trifluoromethyl)sulfonyl)phenyl)carbamoyl)tetrahydro-4H-cyclopenta[d][1,3]dioxol-4-yl)carbamoyl)phenoxy)-1-methylcyclohexane-1-carboxylic acid]
2.9 µL/min/1e6 cells | 7.4 µL/min/1e6 cells |  | 980 µM (≈ 687 µg/mL) | 100% | 190 nM | 7.5 µL/min/mg |  |  |  | COc1cc(F)c(O[C@H]2CC[C@@H](C(=O)O)CC2)cc1C(=O)N[C@@H]1[C@@H]2C[C@@H]([C@H]3OCO[C@@H]23)[C@@H]1C(=O)Nc1cccc(S(=O)(=O)C(F)(F)F)c1 [Example 461, (1S,4s)-4-(2-Fluoro-4-methoxy-5-(((3aS,4S,5R,6S,7R,7aR)-6-((3-((trifluoromethyl)sulfonyl)phenyl)carbamoyl)hexahydro-4,7-methanobenzo[d][1,3]dioxol-5-yl)carbamoyl)phenoxy)cyclohexane-1-carboxylic acid]

The remaining lines, values behind:

Structure (SMILES) | hepatocyte CLint at 1 µM [1] | hepatocyte CLint [2] | Test B Human Plasma Protein Binding (% free) [3] | solubility (Solubility (Test F)) | Test A Sinf (human RXFP1) | EC50 (human RXFP1) | microsomal CLint [4] | Test D Human Hepatocyte Stability Clint ([1]; human hepatocytes) | Test E Rat Hepatocyte Stability Clint ([2]; rat hepatocytes) | Test C Human Liver Microsomal Stability Clint ([4]; human liver microsomes)
COc1cc(F)c(O[C@H]2CC[C@@H](C(=O)O)CC2)cc1C(=O)N[C@@H]1[C@H]2CC[C@H](C2)[C@@H]1C(=O)N[C@@H](C)C(C)(C)C [Example 199] | 2.6 µL/min/1e6 cells | 20 µL/min/1e6 cells |  | 1000 µM (≈ 533 µg/mL) | 100% | 21000 nM | 26 µL/min/mg |  |  | 
CCC(CC)CNC(=O)[C@H]1[C@@H]2CC[C@@H](C2)[C@H]1NC(=O)c1cc(O[C@H]2CC[C@@H](C(=O)O)CC2)c(F)cc1OC [Example 197, (1S,4s)-4-(5-(((1S,2R,3S,4R)-3-((2-ethylbutyl)carbamoyl)bicyclo[2.2.1]heptan-2-yl)carbamoyl)-2-fluoro-4-methoxyphenoxy)cyclohexane-1-carboxylic acid] | 12 µL/min/1e6 cells | 28 µL/min/1e6 cells |  | 1000 µM (≈ 533 µg/mL) | 106% | 1400 nM | 45 µL/min/mg |  |  | 
CCC(C)CNC(=O)C1C2CCC(C2)C1NC(=O)c1cc(OC2CCC(C(=O)O)CC2)c(F)cc1OC (single isomer, unassigned) [Example 203, (1S,4s)-4-(2-Fluoro-4-methoxy-5-(((1S,2R,3S,4R)-3-(((R*)-2-methylbutyl)carbamoyl)bicyclo[2.2.1]heptan-2-yl)carbamoyl)phenoxy)cyclohexane-1-carboxylic acid] |  |  |  | 1000 µM (≈ 519 µg/mL) | 118% |  |  | 5 μL/min/10^6 cells | 34 μL/min/10^6 cells | 19 µL/min/mg
COc1cc(F)c(-c2ccc(CCC(=O)O)cn2)cc1C(=O)N[C@@H]1[C@H]2CC[C@H](C2)[C@@H]1C(=O)Nc1cccc(S(=O)(=O)C(F)(F)F)c1 [Example 242] | 26 µL/min/1e6 cells | 30 µL/min/1e6 cells |  | 900 µM (≈ 597 µg/mL) | 109% | 200 nM | 110 µL/min/mg |  |  | 
COc1cc(F)c(-c2ccc(C(=O)O)c(O)c2)cc1C(=O)N[C@@H]1[C@H]2CC[C@H](C2)[C@@H]1C(=O)Nc1cccc(S(=O)(=O)C(F)(F)F)c1 [Example 247] | 9.5 µL/min/1e6 cells | 12 µL/min/1e6 cells |  | 190 µM (≈ 124 µg/mL) | 104% | 50 nM | 14 µL/min/mg |  |  | 
COc1cc(F)c(-c2cccc(C[C@@H](C(=O)O)N(C)C)c2)cc1C(=O)N[C@@H]1[C@H]2CC[C@H](C2)[C@@H]1C(=O)Nc1cccc(S(=O)(=O)C(F)(F)F)c1 (racemic) [Example 293] | 8.4 µL/min/1e6 cells | 41 µL/min/1e6 cells |  | 21 µM (≈ 14.8 µg/mL) | 118% | 390 nM | 27 µL/min/mg |  |  | 
